Like-named read-outs stand apart in the source and are kept apart here.
Legend:
ROCK1 = ROCK1 (Homo sapiens (Human), UniProt Q13464); experiment: ROCK1 kinase inhibition assay (peptide phosphorylation, LABCHIP 3000); assay type: biochemical; details: 5 μM ATP, 3 nM ROCK1, 3 hours at 25° C.
Description: (§1) The peptide is phosphorylated by the protein kinase ROCK1 or ROCK2. The ROCK1 or ROCK2 enzyme, substrate, and cofactors (ATP and Mg^2+) are combined in a well of a microtiter plate and incubated for 3 hours at 25° C. in the presence or absence of an inhibitor compound. At the end of the incubation, the reaction is quenched by the addition of an EDTA-containing buffer. The substrate and product are separated and quantified electrophoretically using the microfluidic-based LABCHIP® 3000 Drug Discovery System from Caliper Life Sciences (Hopkinton, Mass.).
(§2) The components of the assay mixture are:
10 μM Sodium Orthovanadate
10 LM Beta-Glycerophosphate
(§3) 5 μM ATP (for ROCK1) or 7 μM ATP (for ROCK2)
3 nM ROCK1 or 2.5 nM ROCK2 enzyme
(§4) Substrate and product peptides present in each sample are separated electrophoretically using the LABCHIP® 3000 capillary electrophoresis instrument. […] Change in the relative fluorescence intensity of the substrate and product peaks is the parameter measured reflecting enzyme activity. Capillary electrophoregramms (RDA acquisition files) are analyzed using HTS Well Analyzer software (Caliper Life Sciences, Hopkinton, Mass.). The kinase activity in each sample is determined as the product to sum ratio (PSR): P/(S+P), where P is the peak height of the product peptide and S is the peak height of the substrate peptide. For each compound, enzyme activity is measured at various concentrations (12 concentrations of compound spaced by 3× dilution intervals). Negative control samples (0%-inhibition in the absence of inhibitor) and positive control samples (100%-inhibition in the presence of 20 mM EDTA) are assembled in replicates of four and are used to calculate %-inhibition values for each compound at each concentration. Percent inhibition (Pinh) is determined using the following equation: Pinh=(PSRO %−PSRinh)/(PSRO %−PSR100%)*100
(§5) where PSRinh is the product sum ratio in the presence of inhibitor, PSRO % is the average product sum ratio in the absence of inhibitor, and PSR100% is the average product sum ratio in 100%-inhibition control samples. The IC50 values of inhibitors are determined by fitting the inhibition curves (Pinh versus inhibitor concentration) by the 4-parameter sigmoidal dose-response model using XLfit 4 software (IBDS).

ROCK2 = ROCK2 (Homo sapiens (Human), UniProt O75116); experiment: ROCK2 kinase inhibition assay (peptide phosphorylation, LABCHIP 3000); assay type: biochemical; details: 7 μM ATP, 2.5 nM ROCK2, 3 hours at 25° C.
Description: as §1, §2
10 μM Sodium Orthovanadate
10 LM Beta-Glycerophosphate
as §3
3 nM ROCK1 or 2.5 nM ROCK2 enzyme
as §4, §5

K562 cell line = experiment: Cell viability assay ([…]-GLO), K562; assay type: cell-based; details: Homo sapiens; K562 (does not express ITD-FLT3), 72 hours treatment
Description: Cell viability in the presence of varying concentrations of the above listed compounds at different time points was used to assess cytotoxicity and the effect of the compounds on cell proliferation.
Cell viability was measured by the […]-GlO® cell viability assay from Promega (Madison, Wis.). The […]-GlO Luminescent Cell Viability Assay is a homogeneous method to determine the number of viable cells in culture based on quantitation of the ATP present, which signals the presence of metabolically active cells. Following treatment, […]-GlO® is added to treatment wells and incubated at 37° C. Luminescence values were measured at using a Molecular Devices Spectramax microplate reader.
Cells were grown to 70% confluency, trypsinized, counted, and seeded in 96 well flat-bottom plates at a final concentration of 2.5×10^3-5×10^3 cells/well (Day 0). Cells were allowed to incubate in growth media for 24 hours. Treatment with the test agents or standard agents began on Day 1 and continued for 72 hours. At the 72-hour time point, treatment containing media was removed. Viable cell numbers were quantified by the […]-GLO® cell viability assay as described above. Results from these studies were used to calculate an IC50 value (concentration of drug that inhibits cell growth by 50 percent of control) for each compound.
For single agent and combination studies, data from each experiment was collected and expressed as % Cell Growth using the following calculation: % Cell Growth=(ftest/fvehicle)×100
Where ftest is the luminescence of the tested sample, and fvehicle is the luminescence of the vehicle in which the drug is dissolved. Dose response graphs and IC50 values were generated using Prism 6 software (GraphPad) using the following equation: Y=(Top−Bottom)/(1+10^((logIC50-X)−HillSlope))
Where X is the logarithm of the concentration and Y is the response. Y starts at the Bottom and goes to the Top with a sigmoid shape.
The experiments also evaluated the selectivity of the compounds for inhibiting growth of cancer cells carrying a mutation in the Flt3 gene. The MV411 cell line expresses the mutant allele of Flt3 with internal tandem duplications (ITD) of the gene. See Quentmeier et al., “FLT3 Mutations in Acute Myeloid Leukemia Cell Lines,” Leukemia 17(1), 2003, 120-124. […] See Grafone et al., “Monitoring of FLT3 Phosphorylation Status and Its Response to Drugs By Flow Cytometry in AML Blast Cells,” Hematol Oncol. 26(3), 2008, 159-166.

MV411 cell line = experiment: Cell viability assay ([…]-GLO), MV411; assay type: cell-based; details: for IC50: Homo sapiens, MV4-11, MV411 (ITD-FLT3+), 72 hours treatment; for FLT3-ITD+ Selectivity (K562/MV411): ratio K562/MV411
[1] = Pharmacokinetic activity in mice; assay type: in vivo; details: for AUC(0-t): read-out: AUC0-8; for Vd: read-out: Vss
Description: Compounds were individually and accurately weighed out to produce a stock solution in Dimethyl-sulfoxide (DMSO) at a concentration of 2 mg/mL and stored at −20° C. From the stock solution, a working stock was prepared by diluting it in Methanol-Water 50:50 (v/v) at 20 μg/mL for calibration curve preparation and stored at 4° C. Standards used for quantitation and quality control samples (QCs) were prepared on the same day of sample processing using blank plasma obtained from non-treated mice. For each analyte, standards were prepared through serial dilutions of the working stock at concentrations of 0.1, 0.5, 1.0, 10, 50, 100, 500, and 1000 ng/mL; QCs were prepared at intermediate concentrations of 0.75, 7.5, 75, and 750 ng/mL. Plasma samples were stored at −80° C. until ready for analysis and then placed on ice for thawing. An aliquot of […] samples, standards, or QCs, were transferred into a 96-well extraction plate according to a pre-defined layout. An appropriate volume of Methanol-Formic Acid 99.9-0.1 containing internal standard (Verapamil at 25 ng/mL) was added to each well and the samples were extracted under vacuum. Eluent was then transferred into a LCMS plate for analysis using a suitable column for separation and MRM detection. Concentration of analytes was calculated based on the calibration curve and analyzed for pharmacokinetic parameters by using Non-compartmental analysis (NCA). Parameters such as Cmax, Tmax, half-life, AUC(0-last), AUC(0-∞), volume of distribution (Vss), and clearance (Cl/F) were reported.

Sequence of ROCK2 (O75116 whole entry, species assumed): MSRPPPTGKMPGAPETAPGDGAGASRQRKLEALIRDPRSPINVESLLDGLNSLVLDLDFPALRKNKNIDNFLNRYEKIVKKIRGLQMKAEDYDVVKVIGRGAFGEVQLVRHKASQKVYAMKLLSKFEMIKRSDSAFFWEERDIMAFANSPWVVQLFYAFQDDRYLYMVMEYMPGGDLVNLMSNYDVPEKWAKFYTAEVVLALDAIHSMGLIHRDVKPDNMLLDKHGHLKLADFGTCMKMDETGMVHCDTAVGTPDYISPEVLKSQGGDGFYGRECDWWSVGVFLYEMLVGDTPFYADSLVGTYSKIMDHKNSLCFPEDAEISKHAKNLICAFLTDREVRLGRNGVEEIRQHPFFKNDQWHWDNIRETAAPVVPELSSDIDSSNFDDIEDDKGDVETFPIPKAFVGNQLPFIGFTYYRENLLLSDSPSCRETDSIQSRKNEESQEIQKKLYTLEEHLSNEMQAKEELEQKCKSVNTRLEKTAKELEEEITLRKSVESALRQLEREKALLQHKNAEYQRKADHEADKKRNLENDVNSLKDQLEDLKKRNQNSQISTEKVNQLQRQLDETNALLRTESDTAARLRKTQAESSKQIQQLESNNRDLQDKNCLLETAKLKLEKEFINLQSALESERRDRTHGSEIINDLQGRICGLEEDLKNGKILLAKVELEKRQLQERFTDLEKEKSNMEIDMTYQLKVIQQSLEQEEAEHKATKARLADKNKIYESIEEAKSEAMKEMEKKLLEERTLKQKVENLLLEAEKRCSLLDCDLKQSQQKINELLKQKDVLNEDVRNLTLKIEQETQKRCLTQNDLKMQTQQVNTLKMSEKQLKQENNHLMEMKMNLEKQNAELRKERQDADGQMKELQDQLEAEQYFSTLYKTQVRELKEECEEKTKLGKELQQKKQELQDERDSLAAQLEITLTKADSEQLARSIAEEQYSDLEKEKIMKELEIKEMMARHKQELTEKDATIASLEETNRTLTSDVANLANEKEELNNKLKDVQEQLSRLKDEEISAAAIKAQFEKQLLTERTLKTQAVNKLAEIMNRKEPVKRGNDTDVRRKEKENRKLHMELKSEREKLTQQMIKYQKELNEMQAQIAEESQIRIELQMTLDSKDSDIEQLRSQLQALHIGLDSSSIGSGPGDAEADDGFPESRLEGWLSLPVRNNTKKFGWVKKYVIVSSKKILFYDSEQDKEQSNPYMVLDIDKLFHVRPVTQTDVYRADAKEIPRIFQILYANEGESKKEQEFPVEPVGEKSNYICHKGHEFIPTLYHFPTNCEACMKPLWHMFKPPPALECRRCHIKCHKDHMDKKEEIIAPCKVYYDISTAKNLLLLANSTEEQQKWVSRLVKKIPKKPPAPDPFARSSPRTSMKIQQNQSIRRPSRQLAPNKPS
Sequence of ROCK1 (Q13464 whole entry, species assumed): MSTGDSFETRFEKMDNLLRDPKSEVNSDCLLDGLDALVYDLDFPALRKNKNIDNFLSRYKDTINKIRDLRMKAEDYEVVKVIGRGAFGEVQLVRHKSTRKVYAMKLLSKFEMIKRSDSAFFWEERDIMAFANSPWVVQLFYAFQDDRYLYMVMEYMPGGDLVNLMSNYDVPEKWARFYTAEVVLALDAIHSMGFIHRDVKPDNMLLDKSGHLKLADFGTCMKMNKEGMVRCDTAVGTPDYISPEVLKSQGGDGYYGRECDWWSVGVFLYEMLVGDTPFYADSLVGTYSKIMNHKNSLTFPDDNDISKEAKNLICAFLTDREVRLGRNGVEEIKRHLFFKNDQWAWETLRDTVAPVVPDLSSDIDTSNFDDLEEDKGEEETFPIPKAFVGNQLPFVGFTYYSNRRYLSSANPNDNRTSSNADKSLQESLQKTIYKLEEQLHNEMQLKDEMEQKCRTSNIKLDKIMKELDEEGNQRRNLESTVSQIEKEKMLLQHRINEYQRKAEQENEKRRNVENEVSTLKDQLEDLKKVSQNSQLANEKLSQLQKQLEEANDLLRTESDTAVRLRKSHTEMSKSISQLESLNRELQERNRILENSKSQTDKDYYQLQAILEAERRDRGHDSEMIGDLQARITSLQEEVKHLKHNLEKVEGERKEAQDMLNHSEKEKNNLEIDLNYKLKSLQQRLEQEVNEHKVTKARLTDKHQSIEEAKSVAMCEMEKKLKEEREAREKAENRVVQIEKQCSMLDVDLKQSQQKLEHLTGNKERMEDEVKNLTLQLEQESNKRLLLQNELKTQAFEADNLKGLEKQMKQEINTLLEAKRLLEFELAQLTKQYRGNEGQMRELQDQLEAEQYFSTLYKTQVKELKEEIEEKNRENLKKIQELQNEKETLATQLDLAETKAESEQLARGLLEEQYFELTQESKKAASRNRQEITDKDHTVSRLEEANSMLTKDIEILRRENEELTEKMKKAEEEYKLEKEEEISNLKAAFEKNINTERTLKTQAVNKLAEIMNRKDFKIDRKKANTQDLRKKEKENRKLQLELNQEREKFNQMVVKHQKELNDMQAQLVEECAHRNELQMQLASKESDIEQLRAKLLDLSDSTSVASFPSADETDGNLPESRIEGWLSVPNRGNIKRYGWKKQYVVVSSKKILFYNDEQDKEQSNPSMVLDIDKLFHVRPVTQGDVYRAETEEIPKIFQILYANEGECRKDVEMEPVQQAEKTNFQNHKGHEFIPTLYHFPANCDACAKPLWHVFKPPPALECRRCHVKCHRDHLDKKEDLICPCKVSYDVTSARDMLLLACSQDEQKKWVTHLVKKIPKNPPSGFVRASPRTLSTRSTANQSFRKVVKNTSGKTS

IC50 (ROCK1) [nM]	IC50 (ROCK2) [nM]	IC50 (K562 cell line) [nM]	IC50 (MV411 cell line) [nM]	SMILES	FLT3-ITD+ Selectivity (K562/MV411) (MV411 cell line)	further results
3.1	1	39000	2100	O=C(NCC1CCCCC1)c1cccc([C@@H](CO)NC(=O)c2ccc(-c3ccncc3)cc2)c1 [Compound 21]	19	–
2.2	1.2	28000	1500	O=C(NCC1CCC(F)(F)CC1)c1cccc([C@@H](CO)NC(=O)c2ccc(-c3ccncc3)cc2)c1 [Compound 24]	19	–
3.7	1.5	48000	7400	O=C(NC1CCCCC1)c1cccc([C@@H](CO)NC(=O)c2ccc(-c3ccncc3)cc2)c1 [Compound 26]	6	–
1.6	1.2	–	–	CCN(CC)C1CCC(NC(=O)c2cccc([C@@H](CO)NC(=O)c3ccc(-c4ccncc4)cc3)c2)CC1 (stereo partly drawn) [Compound 35]	–	–
14	4.1	> 100000	140	O=C(NC1CCCC1)c1cccc([C@@H](CO)NC(=O)c2cccc(-c3ccncc3)c2)c1 [Compound 63]	>721	–
16.8	5.2	> 100000	1490	Cc1ccc(-c2ccncc2)cc1C(=O)N[C@H](CO)c1cccc(C(=O)NC2CCCC2)c1 [Compound 64]	>68	–
3.84	0.9	85000	310	CCc1ccc(-c2ccncc2)cc1C(=O)N[C@H](CO)c1cccc(C(=O)NC2CCCC2)c1 [Compound 70]	275	–
2.4	1.2	58000	480	C[C@@H](NC(=O)c1ccc(-c2ccncc2)cc1)c1cccc(C(=O)NC2CC2)c1 [Compound 76]	120	–
2.1	0.94	> 100000	20	COC(=O)N1CCC(NC(=O)c2cccc([C@@H](CO)NC(=O)c3ccc(-c4ccncc4)cc3)c2)CC1 [Compound 77]	>5000	–
1.7	0.57	> 100000	30	COC(=O)N1CCC(CNC(=O)c2cccc([C@@H](CO)NC(=O)c3ccc(-c4ccncc4)cc3)c2)CC1 [Compound 78]	>3333	–
1.9	0.68	> 100000	30	O=C(NC1CCN(CC(F)(F)F)CC1)c1cccc([C@@H](CO)NC(=O)c2ccc(-c3ccncc3)cc2)c1 [Compound 79]	>3333	–
–	2.5	> 100000	410	COc1cc(-c2ccncc2)ccc1C(=O)N[C@H](CO)c1cccc(C(=O)NC2CCCC2)c1 [Compound 110]	246	–

Second part, the compound before the results:

SMILES	IC50 (ROCK1) [nM]	IC50 (ROCK2) [nM]	IC50 (K562 cell line) [nM]	IC50 (MV411 cell line) [nM]	FLT3-ITD+ Selectivity (K562/MV411) (MV411 cell line)	further results
CN1CCn2nc(NC(=O)c3cccc(CNC(=O)c4ccc(-c5ccncc5)cc4)c3)cc2C1 [Compound 1]	11.6	6	> 100000	8900	>11	–
CN1CCc2ccc(NC(=O)c3cccc(C(CO)NC(=O)c4ccc(-c5ccncc5)cc4)c3)cc2C1 (stereo not drawn) [Compound 2]	2.8	2.8	–	–	–	–
O=C(COc1cccc(CNC(=O)c2ccc(-c3ccncc3)cc2)c1)NC1CC1 [Compound 3]	38.8	14.2	> 100000	2400	>42	–
CN(C)CCNC(=O)COc1cccc(CNC(=O)c2ccc(-c3ccncc3)cc2)c1 [Compound 4]	56.1	18.9	–	–	–	–
CC(C)NC(=O)c1cccc(CNC(=O)c2ccc(-c3ccncc3)cc2)c1 [Compound 5]	21.7	6.7	> 100000	1500	>68	–
CN1CCc2ccc(NC(=O)c3cccc([C@@H](CO)NC(=O)c4ccc(-c5ccncc5)cc4)c3)cc2C1 [Compound 7]	–	1.5	20400	60	333	AUC % Extrap ([1]; IV - 1 mg/kg): 3.29%; Cl/F obs ([1]; IV - 1 mg/kg): 68.7 mL/min/kg; R-sq ([1]; IV - 1 mg/kg): 0.88; R-sq ([1]; PO - 5 mg/kg): 0.47; AUC(0-inf) ([1]; mouse, plasma, IV - 1 mg/kg): 243 ng·h/mL; C0 ([1]; mouse, plasma, IV - 1 mg/kg): 411 ng/mL; Cmax ([1]; mouse, plasma, IV - 1 mg/kg): 190 ng/mL; Tmax ([1]; mouse, plasma, IV - 1 mg/kg): 0.25 h; half-life ([1]; mouse, plasma, IV - 1 mg/kg): 6.43 h; AUC(0-t) ([1]; mouse, plasma, IV - 1 mg/kg): 235 ng·h/mL; Vd ([1]; mouse, plasma, IV - 1 mg/kg): 16.3 L/kg; Cmax ([1]; mouse, plasma, PO - 5 mg/kg): 5.3 ng/mL; Tmax ([1]; mouse, plasma, PO - 5 mg/kg): 1 h; AUC(0-t) ([1]; mouse, plasma, PO - 5 mg/kg): 81.6 ng·h/mL
Cn1ccc2ccc(NC(=O)c3cccc([C@@H](CO)NC(=O)c4ccc(-c5ccncc5)cc4)c3)cc2c1=O [Compound 28]	1.6	1.1	> 100000	2400	>42	–
CN(C)c1ccc(CNC(=O)c2cccc([C@@H](CO)NC(=O)c3ccc(-c4ccncc4)cc3)c2)cc1 [Compound 30]	2.9	1.5	–	–	–	–
CN(C)c1cccc(CNC(=O)c2cccc([C@@H](CO)NC(=O)c3ccc(-c4ccncc4)cc3)c2)c1 [Compound 31]	2.1	1	–	–	–	–
CN(C)Cc1ccc(CNC(=O)c2cccc([C@@H](CO)NC(=O)c3ccc(-c4ccncc4)cc3)c2)cc1 [Compound 32]	1.4	0.9	37000	60	619	–
C[C@@H](NC(=O)c1ccc(-c2ccncc2)cc1)c1cccc(C(=O)NC2CCCC2)c1 [Compound 36]	–	–	–	–	–	AUC % Extrap ([1]; IV - 1 mg/kg): 0.35%; Cl/F obs ([1]; IV - 1 mg/kg): 2.67 mL/min/kg; R-sq ([1]; IV - 1 mg/kg): 0.72; AUC % Extrap ([1]; PO - 5 mg/kg): 0.33%; R-sq ([1]; PO - 5 mg/kg): 1.00; AUC(0-inf) ([1]; mouse, plasma, IV - 1 mg/kg): 6070 ng·h/mL; C0 ([1]; mouse, plasma, IV - 1 mg/kg): 5910 ng/mL; Cmax ([1]; mouse, plasma, IV - 1 mg/kg): 4340 ng/mL; Tmax ([1]; mouse, plasma, IV - 1 mg/kg): 0.25 h; half-life ([1]; mouse, plasma, IV - 1 mg/kg): 2.59 h; AUC(0-t) ([1]; mouse, plasma, IV - 1 mg/kg): 5850 ng·h/mL; Vd ([1]; mouse, plasma, IV - 1 mg/kg): 0.27 L/kg; AUC(0-inf) ([1]; mouse, plasma, PO - 5 mg/kg): 10500 ng·h/mL; CL/F ([1]; mouse, plasma, PO - 5 mg/kg): 8 mL/min/kg; Cmax ([1]; mouse, plasma, PO - 5 mg/kg): 2500 ng/mL; Tmax ([1]; mouse, plasma, PO - 5 mg/kg): 1 h; half-life ([1]; mouse, plasma, PO - 5 mg/kg): 2.96 h; bioavailability ([1]; mouse, plasma, PO - 5 mg/kg vs IV - 1 mg/kg): 34.6%; AUC(0-t) ([1]; mouse, plasma, PO - 5 mg/kg): 8890 ng·h/mL; Vd/F ([1]; mouse, plasma, PO - 5 mg/kg, read-out: Vz/F obs): 2.04 L/kg
COc1ccc(NC(=O)c2cccc([C@@H](CO)NC(=O)c3ccc(-c4ccncc4)cc3)c2)cn1 [Compound 80]	1.7	–	–	–	–	–
COc1cc(-c2cn[nH]c2)ccc1C(=O)N[C@H](CO)c1cccc(C(=O)NC2CCCC2)c1 [Compound 81]	3.2	0.88	> 100000	120	833	–
CN(C)Cc1cccc(CNC(=O)c2cccc([C@@H](CO)NC(=O)c3ccc(-c4cn[nH]c4)cc3)c2)c1 [Compound 82]	2	0.65	> 100000	610	166	–

— US10738007B2, “Amide compounds as kinase inhibitors, compositions and methods of treatment” (TRANSLATIONAL DRUG DEVELOPMENT, LLC, priority 2016, dated 2020)
